Measurements taken from PMC9395446, “First-in-human phase 1/1b study to evaluate sitravatinib in patients with advanced solid tumors” (Investigational New Drugs, 2022).

Assay: Safety in phase 1/1b study (DLTs, TRAEs, TEAEs; CTCAE v4.03)
Format: in vivo, human
Description: Safety assessments included evaluation of DLTs, AEs, physical examinations, vital sign measurements, electrocardiogram recordings and laboratory tests.
A DLT was defined as a grade ≥ 4 hematologic abnormality lasting ≥ 4 days; grade 3 thrombocytopenia with clinically significant bleeding; febrile neutropenia; clinically significant grade ≥ 3 non-hematologic AEs not related to underlying malignancy; intolerable grade 2 AEs; or toxicity resulting in an inability to deliver 80% of the dose during the first treatment cycle.
The safety population included all patients who received ≥ 1 dose of sitravatinib. […] The PK evaluable population included all patients with sufficient concentration-time data for PK parameter evaluation. The modified intent-to-treat (mITT) population included all phase 1b patients who received ≥ 1 dose of study drug.

[1] = safety population (N = 193), any grade

COCCNCc1ccc(-c2cc3nccc(Oc4ccc(NC(=O)C5(C(=O)Nc6ccc(F)cc6)CC5)cc4F)c3s2)nc1 [sitravatinib, Sitravatinib]
14.3%: DLT-evaluable phase 1 patients with a DLT (phase 1, 10–200 mg)
4/28: DLT-evaluable phase 1 patients with a DLT (n/N) (phase 1, 10–200 mg)
14 (43.8) n (%): Nervous system disorders TEAE, any grade (Phase 1)
24 (75.0) n (%): Any TRAE (Phase 1)
62.2%: TRAEs leading to treatment modification (dose reduction or interruption) (safety population (N = 193))
16 (50.0) n (%): Infections and infestations TEAE, any grade (Phase 1) | Investigations TEAE, any grade (Phase 1)
2.1%: Discontinuation due to diarrhea, nausea and fatigue (each) (safety population (N = 193))
1 (3.1) n (%): Anemia TEAE, grade ≥3 (Phase 1) | Decreased appetite TEAE, grade ≥3 (Phase 1) | Dehydration TEAE, grade ≥3 (Phase 1) | Edema peripheral TEAE, grade ≥3 (Phase 1) | Fatigue TRAE, grade ≥3 (Phase 1) | Hypophosphatemia TEAE, grade ≥3 (Phase 1) | Lipase increased TEAE, grade ≥3 (Phase 1) | Nausea TEAE, grade ≥3 (Phase 1) | PPE syndrome TEAE, grade ≥3 (Phase 1) | PPE syndrome TRAE, grade ≥3 (Phase 1) | Psychiatric disorders TEAE, grade ≥3 (Phase 1) | Skin and subcutaneous tissue disorders TEAE, grade ≥3 (Phase 1) | Vomiting TEAE, grade ≥3 (Phase 1)
7 (21.9) n (%): Blood and lymphatic system disorders TEAE, any grade (Phase 1) | Decreased appetite TRAE, any grade (Phase 1) | Dyspnea TEAE, any grade (Phase 1) | Edema peripheral TEAE, any grade (Phase 1) | Psychiatric disorders TEAE, any grade (Phase 1)
17 (53.1) n (%): Fatigue TEAE, any grade (Phase 1)
21 (65.6) n (%): General disorders and administration site conditions TEAE, any grade (Phase 1) | Metabolism and nutrition disorders TEAE, any grade (Phase 1) | Skin and subcutaneous tissue disorders TEAE, any grade (Phase 1)
11 (34.4) n (%): Hypertension TEAE, any grade (Phase 1) | Vomiting TEAE, any grade (Phase 1)
19 (59.4) n (%): Musculoskeletal and connective tissue disorders TEAE, any grade (Phase 1)
30.1%: TRAE nausea [1]
7.3%: Grade ≥ 3 TRAE fatigue (safety population (N = 193))
6 (18.8) n (%): Dry mouth TEAE, any grade (Phase 1) | Investigations TEAE, grade ≥3 (Phase 1) | Nausea TRAE, any grade (Phase 1) | Vomiting TRAE, any grade (Phase 1)
120 mg: Recommended dose for further exploration (QD, defined in phase 1b due to tolerability)
3 (9.4) n (%): Blood creatinine increased TEAE, any grade (Phase 1) | Cardiac disorders TEAE, any grade (Phase 1) | Diarrhea TEAE, grade ≥3 (Phase 1) | Dyspnea TEAE, grade ≥3 (Phase 1) | Fatigue TEAE, grade ≥3 (Phase 1) | General disorders and administration site conditions TEAE, grade ≥3 (Phase 1) | Hypokalemia TEAE, any grade (Phase 1) | Hypomagnesemia TEAE, any grade (Phase 1) | Hyponatremia TEAE, any grade (Phase 1) | Hyponatremia TEAE, grade ≥3 (Phase 1) | Hypothyroidism TRAE, any grade (Phase 1) | Lipase increased TEAE, any grade (Phase 1) | Neoplasms benign, malignant, unspecified TEAE, any grade (Phase 1) | Neoplasms benign, malignant, unspecified TEAE, grade ≥3 (Phase 1) | Serious TRAE (Phase 1) | Stomatitis TRAE, any grade (Phase 1) | TEAE leading to death (Phase 1) | UTI TEAE, any grade (Phase 1)
12 (37.5) n (%): Cough TEAE, any grade (Phase 1) | TRAE leading to treatment modification (Phase 1)
5 (15.6) n (%): Anemia TEAE, any grade (Phase 1) | Constipation TEAE, any grade (Phase 1) | Dehydration TEAE, any grade (Phase 1) | Dizziness TEAE, any grade (Phase 1) | Dysphonia TEAE, any grade (Phase 1) | Hypertension TRAE, grade ≥3 (Phase 1) | Infections and infestations TEAE, grade ≥3 (Phase 1) | Rash TEAE, any grade (Phase 1) | TEAE leading to discontinuation (Phase 1)
4 (12.5) n (%): Asthenia TEAE, any grade (Phase 1) | Dry mouth TRAE, any grade (Phase 1) | Gastrointestinal disorders TEAE, grade ≥3 (Phase 1) | Injury, poisoning, procedural complications TEAE, any grade (Phase 1) | Metabolism and nutrition disorders TEAE, grade ≥3 (Phase 1) | PPE syndrome TEAE, any grade (Phase 1) | PPE syndrome TRAE, any grade (Phase 1) | Rash TRAE, any grade (Phase 1) | Respiratory, thoracic and mediastinal disorders TEAE, grade ≥3 (Phase 1) | Stomatitis TEAE, any grade (Phase 1) | Weight decreased TEAE, any grade (Phase 1)
20 (62.5) n (%): TEAE grade ≥3 (Phase 1)
2 (6.3) n (%): Blood and lymphatic system disorders TEAE, grade ≥3 (Phase 1) | Cardiac disorders TEAE, grade ≥3 (Phase 1) | Constipation TRAE, any grade (Phase 1) | Diarrhea TRAE, grade ≥3 (Phase 1) | Dizziness TRAE, any grade (Phase 1) | Dysphonia TRAE, any grade (Phase 1) | Hypophosphatemia TEAE, any grade (Phase 1) | Pain in extremity TEAE, any grade (Phase 1) | Proteinuria TEAE, any grade (Phase 1) | Proteinuria TRAE, any grade (Phase 1) | TRAE leading to discontinuation (Phase 1) | UTI TEAE, grade ≥3 (Phase 1) | Weight decreased TRAE, any grade (Phase 1)
9 (28.1) n (%): Headache TEAE, any grade (Phase 1) | Renal and urinary disorders TEAE, any grade (Phase 1) | Serious TEAE (Phase 1)
10.4%: Grade ≥ 3 TRAE diarrhea (safety population (N = 193))
15.0%: Treatment modification due to fatigue (safety population (N = 193)) | Treatment modification due to hypertension (safety population (N = 193))
0.5%: TRAE leading to death (cardiac arrest) (overall population)
25 (78.1) n (%): Gastrointestinal disorders TEAE, any grade (Phase 1)
8 (25.0) n (%): Back pain TEAE, any grade (Phase 1) | Diarrhea TRAE, any grade (Phase 1) | Hypertension TRAE, any grade (Phase 1)
53.4%: Patients with grade ≥ 3 TRAEs (safety population (N = 193))
31 (96.9) n (%): Any TEAE (Phase 1)
3.6%: Each reported DLT (fatigue, mucosal inflammation, peripheral sensory neuropathy, PPE syndrome), share of phase 1 population (phase 1, n = 1 each)
150 mg: Maximum tolerated dose (MTD) (daily (QD), phase 1 dose escalation, mTPI method)
43.0%: TRAE fatigue [1]
one: Patients with DLT (phase 1, 80 mg)
20.7%: Grade ≥ 3 TRAE hypertension (safety population (N = 193))
17.6%: Treatment modification due to diarrhea (safety population (N = 193))
11.9%: Treatment modification due to PPE syndrome (safety population (N = 193))
22 (68.8) n (%): Respiratory, thoracic and mediastinal disorders TEAE, any grade (Phase 1)
13.5%: Patients discontinued due to TRAEs (safety population (N = 193))
0 n (%): Abdominal pain TRAE, any grade (Phase 1) | Abdominal pain TRAE, grade ≥3 (Phase 1) | Asthenia TEAE, grade ≥3 (Phase 1) | Blood creatinine increased TEAE, grade ≥3 (Phase 1) | Constipation TEAE, grade ≥3 (Phase 1) | Constipation TRAE, grade ≥3 (Phase 1) | Cough TEAE, grade ≥3 (Phase 1) | Decreased appetite TRAE, grade ≥3 (Phase 1) | Dizziness TRAE, grade ≥3 (Phase 1) | Dry mouth TEAE, grade ≥3 (Phase 1) | Dry mouth TRAE, grade ≥3 (Phase 1) | Dysphonia TEAE, grade ≥3 (Phase 1) | Dysphonia TRAE, grade ≥3 (Phase 1) | Hypokalemia TEAE, grade ≥3 (Phase 1) | Hypomagnesemia TEAE, grade ≥3 (Phase 1) | Hypothyroidism TRAE, grade ≥3 (Phase 1) | Injury, poisoning, procedural complications TEAE, grade ≥3 (Phase 1) | Nausea TRAE, grade ≥3 (Phase 1) | Proteinuria TRAE, grade ≥3 (Phase 1) | Rash TEAE, grade ≥3 (Phase 1) | Rash TRAE, grade ≥3 (Phase 1) | Stomatitis TEAE, grade ≥3 (Phase 1) | Stomatitis TRAE, grade ≥3 (Phase 1) | TRAE leading to death (Phase 1) | Vomiting TRAE, grade ≥3 (Phase 1) | Weight decreased TEAE, grade ≥3 (Phase 1) | Weight decreased TRAE, grade ≥3 (Phase 1)
10 (31.3) n (%): TRAE grade ≥3 (Phase 1)
15 (46.9) n (%): Decreased appetite TEAE, any grade (Phase 1)
90.2%: Patients with any TRAE (safety population (N = 193))
13 (40.6) n (%): Diarrhea TEAE, any grade (Phase 1) | Fatigue TRAE, any grade (Phase 1) | Nausea TEAE, any grade (Phase 1) | TEAE leading to treatment modification (Phase 1) | Vascular disorders TEAE, any grade (Phase 1)
40.4%: TRAE hypertension [1]
6 (18.8) 6 (18.8) n (%): Endocrine disorders TEAE, any grade (Phase 1) | Hypertension TEAE, grade ≥3 (Phase 1) | Hypothyroidism TEAE, any grade (Phase 1) | Vascular disorders TEAE, grade ≥3 (Phase 1)
three: Patients with DLT (phase 1, 200 mg)
50.8%: TRAE diarrhea [1]
